Reference: ChEMBL document CHEMBL1833802, “Substitution of the GalNAc-α-O-Thr¹¹ residue in drosocin with O-linked glyco-peptoid residue: effect on antibacterial activity and conformational change” (2011)
Activity calls are given as the source filed them. The rule behind the calls is not given here. Numbered stars: 1 amine (or outer) side, 2 acyl side, 3 side chain; on linkers, the order of the positions; unused ones are H or OH. Square brackets hold non-standard residues; d marks the D form. Peptide text beside a SMILES is read from it. X1 = CC(=O)N[C@H]1[C@@H](O[C@@H](C)CN(CC(=O)[*:2])[*:1])O[C@H](CO)[C@H](O)[C@@H]1O; X2 = CC(=O)N[C@H]1[C@@H](O[C@H](C)CN(CC(=O)[*:2])[*:1])O[C@H](CO)[C@H](O)[C@@H]1O; X3 = CC(=O)N[C@H]1[C@@H](OCCN(CC(=O)[*:2])[*:1])O[C@H](CO)[C@H](O)[C@@H]1O

How the values were obtained:
Escherichia coli [1] = experiment: Antibacterial activity against clinical isolate Escherichia coli KCTC 1682 after overnight incubation by radial diffusion assay; format: functional, organism-based
Escherichia coli [2] = experiment: Antibacterial activity against clinical isolate Escherichia coli KCTC 1682 at 50 uM after overnight incubation by radial diffusion assay relative to drosocin D; format: functional

Structure (SMILES) | Activity (Escherichia coli [1]) | fold change (FC) (Escherichia coli [2])
CC[C@H](C)[C@H](NC(=O)[C@@H]1CCCN1C(=O)[C@H](CCCNC(=N)N)NC(=O)[C@@H]1CCCN1C(=O)[C@H](Cc1cnc[nH]1)NC(=O)[C@H](CO)NC(=O)CN(C[C@H](C)O[C@H]1O[C@H](CO)[C@H](O)[C@H](O)[C@H]1NC(C)=O)C(=O)[C@H](C)NC(=O)[C@H](CCCNC(=N)N)NC(=O)[C@@H]1CCCN1C(=O)[C@@H](NC(=O)[C@H](Cc1ccc(O)cc1)NC(=O)[C@@H]1CCCN1C(=O)[C@H](CCCNC(=N)N)NC(=O)[C@@H]1CCCN1C(=O)[C@H](CCCCN)NC(=O)CN)[C@@H](C)O)C(=O)N[C@@H](CCCNC(=N)N)C(=O)N[C@H](C(=O)O)C(C)C (H-GKPRPYTPRA[X1]SHPRPIRV-OH) | Dose-dependent effect | 6
CC[C@H](C)[C@H](NC(=O)[C@@H]1CCCN1C(=O)[C@H](CCCNC(=N)N)NC(=O)[C@@H]1CCCN1C(=O)[C@H](Cc1cnc[nH]1)NC(=O)[C@H](CO)NC(=O)CN(C[C@@H](C)O[C@H]1O[C@H](CO)[C@H](O)[C@H](O)[C@H]1NC(C)=O)C(=O)[C@H](C)NC(=O)[C@H](CCCNC(=N)N)NC(=O)[C@@H]1CCCN1C(=O)[C@@H](NC(=O)[C@H](Cc1ccc(O)cc1)NC(=O)[C@@H]1CCCN1C(=O)[C@H](CCCNC(=N)N)NC(=O)[C@@H]1CCCN1C(=O)[C@H](CCCCN)NC(=O)CN)[C@@H](C)O)C(=O)N[C@@H](CCCNC(=N)N)C(=O)N[C@H](C(=O)O)C(C)C (H-GKPRPYTPRA[X2]SHPRPIRV-OH) | Active | 
CC[C@H](C)[C@H](NC(=O)[C@@H]1CCCN1C(=O)[C@H](CCCNC(=N)N)NC(=O)[C@@H]1CCCN1C(=O)[C@H](Cc1cnc[nH]1)NC(=O)[C@H](CO)NC(=O)CN(CCO[C@H]1O[C@H](CO)[C@H](O)[C@H](O)[C@H]1NC(C)=O)C(=O)[C@H](C)NC(=O)[C@H](CCCNC(=N)N)NC(=O)[C@@H]1CCCN1C(=O)[C@@H](NC(=O)[C@H](Cc1ccc(O)cc1)NC(=O)[C@@H]1CCCN1C(=O)[C@H](CCCNC(=N)N)NC(=O)[C@@H]1CCCN1C(=O)[C@H](CCCCN)NC(=O)CN)[C@@H](C)O)C(=O)N[C@@H](CCCNC(=N)N)C(=O)N[C@H](C(=O)O)C(C)C (H-GKPRPYTPRA[X3]SHPRPIRV-OH) | Active | 
